Measurements from US20120121540A1 (priority 2007, published 2012).

How the values were obtained:
[1] = HCV replicon assay (luciferase reporter, ET cell line); type: cell-based; conditions: Hepatitis C virus, HCV replicon luciferase activity in ET cells
Outline: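 EC50 and, via WST-1 cytotoxicity, TC50 were fitted with a Hill-coefficient equation to % inhibition across 10 two-fold dilutions. Compounds at 0.1 nM-[…] with 0.5% DMSO were applied 24 h post-seeding to replicon-bearing ET cells (luc-ubi-neo/NS3-5B, adaptive mutations). Firefly luciferase signal was measured after 48-72 h.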

[2] = patients treated at currently recommended doses; cited from earlier work

Row | Compound | inhibition at 10 µM [1] [%] | patients with significant hemolysis [2]
1 | CC(C)c1cc(-c2ccccc2)cn2c(Br)c(C(=O)N3CCC(c4cccc(F)c4)C3)nc12 (centres unmarked) [Compound 647, (3-Bromo-8-isopropyl-6-phenyl-imidazo[1,2-a]pyridin-2-yl)-[3-(3-fluoro-phenyl)-pyrrolidin-1-yl]-methanone] | 58.6 | 
2 | CC(C)Cn1cc(-c2cc(C(F)(F)F)c3nc(C(=O)NCc4cccs4)c(Cl)n3c2)cn1 [Compound 649, 3-Chloro-6-(1-isobutyl-1H-pyrazol-4-yl)-8-trifluoromethyl-imidazo[1,2-a]pyridine-2-carboxylic Acid(thiophen-2-ylmethyl)-amide] | 62.7 | 
3 | O=C(Cc1cn2cc(-c3ccoc3)cc(C(F)(F)F)c2n1)NCc1cccs1 [Compound 650, 2-[6-(furan-3-yl)-8-(trifluoromethyl)imidazo[1,2-a]pyridin-2-yl]-N-(thiophen-2-ylmethyl)acetamide] | 65.7 | 
4 | O=C(Cc1cn2cc(-c3ccoc3)cc(C(F)(F)F)c2n1)N1CCC(c2cccc(F)c2)C1 (centres unmarked) [Compound 652, 1-[3-(3-fluorophenyl)pyrrolidin-1-yl]-2-[6-(furan-3-yl)-8-(trifluoromethyl)imidazo[1,2-a]pyridin-2-yl]ethanone] | 82.1 | 
5 | FC(F)(F)c1cc(-c2ccoc2)cn2cc(-c3cc(-c4ccccc4)no3)nc12 [Compound 654, 6-Furan-3-yl-2-(3-phenyl-isoxazol-5-yl)-8-trifluoromethyl-imidazo[1,2-a]pyridine] | 20.4 | 
6 | FC(F)(F)c1cc(-c2ccco2)cn2c(Cl)c(-c3nc(Cc4ccccc4)no3)nc12 [Compound 656, 2-(3-Benzyl-[1,2,4]oxadiazol-5-yl)-3-chloro-6-furan-2-yl-8-trifluoromethyl-imidazo[1,2-a]pyridine] | 34.1 | 
7 | O=C(c1nc2c(C(F)(F)F)cc(-c3cn[nH]c3)cn2c1I)N1CCC(c2cccc(F)c2)C1 (centres unmarked) [Compound 659] | 93.8 | 
8 | NC(=O)c1ncn([C@@H]2O[C@H](CO)[C@@H](O)[C@H]2O)n1 [Ribavirin, ribavirin] |  | 10-20%
